Tested on: moderate-to-severe chronic spontaneous urticaria (CSU)
Assay: Phase 2 CSU study: itch severity score over 7 days (ISS7)
Assay type: in vivo, human
Conditions: 400 mg BID; for Change from Baseline in ISS7 at Week 12, LS Mean / Change from Baseline in ISS7 at Week 12, LS Mean Diff vs. placebo / Change from Baseline in ISS7 at Week 12, Mean: Omalizumab-naïve population
From the text: The study comprises a 12 week, randomized, double-blind, placebo-controlled, multi-center, dose-ranging efficacy and safety phase, followed by a 40 week open label extension (OLE) phase (see FIG. 1). The study consists of three phases and an optional OLE phase. […] Clinically, CSU is characterized by the spontaneous and recurrent appearance of pruritic hives. The proposed primary endpoints were the UAS7 at Week 12 in EU and EU reference countries and the ISS7 in the US. Regardless of where a participant was from, all assessments were the same. The UAS7 score is a composite score containing both the HSS7 and the ISS7. This allowed a global assessment of the two key components of urticaria: hives and itch. […] The UAS is a validated PRO measure. […] The daily UAS scores range from 0 to 6 point/day. […] Patients were to complete the UAS using the e-diary. […] The following secondary endpoints were to be analyzed using the same approach as for the primary endpoint: • Change from baseline in UAS7 at Week 4 • Change from baseline in UAS7 at Week 12 (for US and US reference countries) • Change from baseline in ISS7 at Week 12 (except US and US reference countries) • Change from baseline in HSS7 at Week 12

[1] = Baseline Eosinophils (10^9/L) <0.150
[2] = Baseline Eosinophils (10^9/L) <0.165 (Median)
[3] = Baseline Eosinophils (10^9/L) <0.3
[4] = Baseline Eosinophils (10^9/L) ≥0.150
[5] = Baseline Eosinophils (10^9/L) ≥0.165 (Median)
[6] = Baseline Eosinophils (10^9/L) ≥0.3
[7] = Baseline H1-antihistamines dose 1-fold
[8] = Baseline H1-antihistamines dose 2 to 4-fold standard dose
[9] = Baseline Total IgE (IU/mL) <100
[10] = Baseline Total IgE (IU/mL) <300
[11] = Baseline Total IgE (IU/mL) ≥100
[12] = Baseline Total IgE (IU/mL) ≥300
[13] = Duration of disease (years) 2-10
[14] = Duration of disease (years) >10

SMILES: CC(C)(C=C(C#N)C(=O)N1CCC[C@@H](n2nc(-c3ccc(Oc4ccccc4)cc3F)c3c(N)ncnc32)C1)N1CCN(C2COC2)CC1 [rilzabrutinib, (R)-2-[3-[4-amino-3-(2-fluoro-4-phenoxy-phenyl)pyrazolo[3,4-d]pyrimidin-1-yl]piperidine-1-carbonyl]-4-methyl-4-[4-(oxetan-3-yl)piperazin-1-yl]pent-2-enenitrile]
- Change from Baseline in ISS7 at Week 12, LS Mean (Age group (years) <44 (Median)): −7.05
- Change from Baseline in ISS7 at Week 12, LS Mean Diff vs. placebo (Age group (years) <44 (Median)): −2.58
- Change from Baseline in ISS7 at Week 12, Mean (Age group (years) <44 (Median)): −5.97
- Change from Baseline in ISS7 at Week 12, LS Mean (Age group (years) <65): −7.37
- Change from Baseline in ISS7 at Week 12, LS Mean Diff vs. placebo (Age group (years) <65): −1.71
- Change from Baseline in ISS7 at Week 12, Mean (Age group (years) <65): −7.17
- Change from Baseline in ISS7 at Week 12, LS Mean (Age group (years) ≥44 (Median)): −8.10
- Change from Baseline in ISS7 at Week 12, LS Mean Diff vs. placebo (Age group (years) ≥44 (Median)): −1.50
- Change from Baseline in ISS7 at Week 12, Mean (Age group (years) ≥44 (Median)): −8.62
- Change from Baseline in ISS7 at Week 12, Mean (Age group (years) ≥65): −13.00
- Change from Baseline in ISS7 at Week 12, LS Mean (Baseline BHRA BHRA+): −8.42
- Change from Baseline in ISS7 at Week 12, LS Mean Diff vs. placebo (Baseline BHRA BHRA+): −3.03
- Change from Baseline in ISS7 at Week 12, Mean (Baseline BHRA BHRA+): −9.57
- Change from Baseline in ISS7 at Week 12, LS Mean (Baseline BHRA BHRA−): −6.59
- Change from Baseline in ISS7 at Week 12, Mean (Baseline BHRA BHRA−): −6.75
- Change from Baseline in ISS7 at Week 12, LS Mean Diff vs. placebo (Baseline BMI (kg/m^2) ≥30): −0.57
- Change from Baseline in ISS7 at Week 12, LS Mean [1]: −6.93
- Change from Baseline in ISS7 at Week 12, LS Mean Diff vs. placebo [1]: −0.15
- Change from Baseline in ISS7 at Week 12, LS Mean [2]: −7.37
- Change from Baseline in ISS7 at Week 12, LS Mean Diff vs. placebo [2]: −0.86
- Change from Baseline in ISS7 at Week 12, Mean [2]: −5.92
- Change from Baseline in ISS7 at Week 12, LS Mean [3]: −7.78
- Change from Baseline in ISS7 at Week 12, LS Mean Diff vs. placebo [3]: −2.31
- Change from Baseline in ISS7 at Week 12, Mean [3]: −7.62
- Change from Baseline in ISS7 at Week 12, LS Mean [4]: −7.91
- Change from Baseline in ISS7 at Week 12, LS Mean Diff vs. placebo [4]: −3.92
- Change from Baseline in ISS7 at Week 12, LS Mean [5]: −7.62
- Change from Baseline in ISS7 at Week 12, LS Mean Diff vs. placebo [5]: −3.53
- Change from Baseline in ISS7 at Week 12, Mean [5]: −8.88
- Change from Baseline in ISS7 at Week 12, LS Mean [6]: −6.15
- Change from Baseline in ISS7 at Week 12, LS Mean Diff vs. placebo [6]: −1.29
- Change from Baseline in ISS7 at Week 12, LS Mean [7]: −8.44
- Change from Baseline in ISS7 at Week 12, LS Mean Diff vs. placebo [7]: −1.60
- Change from Baseline in ISS7 at Week 12, Mean [7]: −9.03
- Change from Baseline in ISS7 at Week 12, LS Mean [8]: −6.73
- Change from Baseline in ISS7 at Week 12, LS Mean Diff vs. placebo [8]: −3.25
- Change from Baseline in ISS7 at Week 12, Mean [8]: −6.20
- Change from Baseline in ISS7 at Week 12, LS Mean (Baseline ISS7 score <13): −5.14
- Change from Baseline in ISS7 at Week 12, LS Mean Diff vs. placebo (Baseline ISS7 score <13): −2.42
- Change from Baseline in ISS7 at Week 12, Mean (Baseline ISS7 score <13): −5.28
- Change from Baseline in ISS7 at Week 12, LS Mean (Baseline ISS7 score ≥13): −7.87
- Change from Baseline in ISS7 at Week 12, LS Mean Diff vs. placebo (Baseline ISS7 score ≥13): −2.14
- Change from Baseline in ISS7 at Week 12, Mean (Baseline ISS7 score ≥13): −8.03
- Change from Baseline in ISS7 at Week 12, LS Mean [9]: −8.29
- Change from Baseline in ISS7 at Week 12, LS Mean Diff vs. placebo [9]: −4.06
- Change from Baseline in ISS7 at Week 12, Mean [9]: −8.52
- Change from Baseline in ISS7 at Week 12, LS Mean [10]: −7.94
- Change from Baseline in ISS7 at Week 12, LS Mean Diff vs. placebo [10]: −3.43
- Change from Baseline in ISS7 at Week 12, Mean [10]: −7.93
- Change from Baseline in ISS7 at Week 12, LS Mean [11]: −6.91
- Change from Baseline in ISS7 at Week 12, LS Mean Diff vs. placebo [11]: −0.88
- Change from Baseline in ISS7 at Week 12, Mean [11]: −6.57
- Change from Baseline in ISS7 at Week 12, LS Mean [12]: −7.17
- Change from Baseline in ISS7 at Week 12, LS Mean Diff vs. placebo [12]: −0.62
- Change from Baseline in ISS7 at Week 12, Mean [12]: −6.20
- Change from Baseline in ISS7 at Week 12, LS Mean (Baseline UAS7 score <28): −5.40
- Change from Baseline in ISS7 at Week 12, LS Mean Diff vs. placebo (Baseline UAS7 score <28): −2.22
- Change from Baseline in ISS7 at Week 12, Mean (Baseline UAS7 score <28): −6.29
- Change from Baseline in ISS7 at Week 12, LS Mean (Baseline UAS7 score ≥28): −8.64
- Change from Baseline in ISS7 at Week 12, LS Mean Diff vs. placebo (Baseline UAS7 score ≥28): −2.04
- Change from Baseline in ISS7 at Week 12, Mean (Baseline UAS7 score ≥28): −8.21
- Change from Baseline in ISS7 at Week 12, LS Mean [13]: −6.89
- Change from Baseline in ISS7 at Week 12, LS Mean Diff vs. placebo [13]: 0.14
- Change from Baseline in ISS7 at Week 12, Mean [13]: −8.05
- Change from Baseline in ISS7 at Week 12, LS Mean (Duration of disease (years) <2): −8.54
- Change from Baseline in ISS7 at Week 12, LS Mean Diff vs. placebo (Duration of disease (years) <2): −4.89
- Change from Baseline in ISS7 at Week 12, Mean (Duration of disease (years) <2): −7.53
- Change from Baseline in ISS7 at Week 12, LS Mean [14]: 5.36
- Change from Baseline in ISS7 at Week 12, LS Mean Diff vs. placebo [14]: 9.04
- Change from Baseline in ISS7 at Week 12, Mean [14]: 1.67
- Change from Baseline in ISS7 at Week 12, LS Mean (Ethnicity Hispanic): −5.19
- Change from Baseline in ISS7 at Week 12, LS Mean Diff vs. placebo (Ethnicity Hispanic): 1.82
- Change from Baseline in ISS7 at Week 12, Mean (Ethnicity Hispanic): −4.42
- Change from Baseline in ISS7 at Week 12, LS Mean (Ethnicity Non-Hispanic): −8.43
- Change from Baseline in ISS7 at Week 12, LS Mean Diff vs. placebo (Ethnicity Non-Hispanic): −3.96
- Change from Baseline in ISS7 at Week 12, Mean (Ethnicity Non-Hispanic): −8.59
- Change from Baseline in ISS7 at Week 12, Mean (Gender Female): −6.99
- Change from Baseline in ISS7 at Week 12, Mean (Gender Male): −8.17
- Change from Baseline in ISS7 at Week 12, LS Mean (History of angioedema No): −7.93
- Change from Baseline in ISS7 at Week 12, LS Mean Diff vs. placebo (History of angioedema No): −2.59
- Change from Baseline in ISS7 at Week 12, LS Mean (History of angioedema Yes): −6.26
- Change from Baseline in ISS7 at Week 12, LS Mean Diff vs. placebo (History of angioedema Yes): −1.01
- Change from Baseline in ISS7 at Week 12, Mean (History of angioedema Yes): −4.04
- ISS7 at Week 12, Mean (ITT population): 7.61
- ISS7 at Week 12, Median (ITT population): 7.00
- ISS7 change from baseline at Week 12, Mean (ITT population): −8.21
- ISS7 change from baseline at Week 12, Median (ITT population): −8.00
- ISS7 change from baseline at Week 12, LS Mean (ITT population, ANCOVA): −8.06 points
- ISS7 change from baseline at Week 12, LS Mean Diff vs. placebo (ITT population, ANCOVA): −1.75
- LS mean change in ISS7 from baseline (see Table 29) (ITT population, following one week of treatment): −5.23 points
- Change from Baseline in ISS7 at Week 12, LS Mean (Race All the Others): −6.99

Reference: patent US20260256792A1, “TREATMENT OF CHRONIC SPONTANEOUS URTICARIA BY ADMINISTERING (R)-2-[3-[4-AMINO-3-(2-FLUORO-4-PHENOXY-PHENYL)PYRAZOLO[3,4-D]PYRIMIDIN-1-YL]PIPERIDINE-1-CARBONYL]-4-METHYL-4-[4-(OXETAN-3-YL)PIPERAZIN-1-YL]PENT-2-ENENITRILE” (priority 2023, published 2026)
